Laboratory results published in US20230233470A1, “Formulations” (ViiV Healthcare Company, priority 2020, published 2023).

Experiments:
[1] = Estimate of DTG solubility in the dispersion; format: physicochemical; conditions: for solubility when dispersed: Triumeq bilayer tablets dispersed in water
Procedure: (§1) Treatment B-E: Triumeq bilayer tablets—4 tablets (10 mg DTG/ABC 150 mg/3TC 75 mg) dispersed in high mineral content water (Contrex)* or purified water.
(§2) *Contrex water contains a very high level of minerals including calcium, purified water is mineral free.

[2] = Initial relative bioavailability PK study: Triumeq bilayer tablets dispersed in Contrex or purified water vs 4 x 10 mg DTG tablet + Kivexa; format: in vivo; conditions: for differences in exposure across all 5 arms: Treatments A-E; for AUC0-inf (h*ug/mL) Ratio / Cmax (ug/mL) Ratio: DTG; for impact of DTG solubility on DTG levels in plasma / PK: solubility range studied 16-70%
Procedure: Treatment (TRT) A: Reference 4×10 mg DTG tablet+Kivexa (ABC 600 mg/3TC 300 mg)
as §1, §2

[3] = Relative bioavailability: Trii Dispersible tablet (dispersed or direct to mouth) vs adult TRIUMEQ tablet; format: in vivo; conditions: for differences in exposure: dispersed or direct to mouth vs. the IR tablet
[4] = Dissolution (% released), USP <711> and Ph. Eur. 2.9.3; format: physicochemical; conditions: active released from Triumeq Dispersible Bilayer Tablet; Q = 75% at 60 minutes
[5] = B vs A: bi-layer tablet in Contrex water, immediate, vs 4 × 10 mg tablet + Kivexa
[6] = C vs A: bi-layer tablet in Contrex water, 30 mins, vs control
[7] = D vs A: bi-layer tablet in purified water, immediate, vs control
[8] = E vs A: bi-layer tablet in purified water, 30 mins, vs control

With `Nc1nc(NC2CC2)c2ncn([C@H]3C=C[C@@H](CO)C3)c2n1` [Abacavir, (1S,4R-4-[2-amino-6-cyclopropylamino)-9H-purin-9-yl]-2-cyclopentene-1-methanol hemisulfate] the solubility when dispersed [1] was “fully soluble”, the “differences in exposure across all 5 arms” value [2] was “no differences in exposure” and the differences in exposure [3] was “No differences in exposure”. For the same molecule, the “Dissolution (% released)” value [4] was 101 (99-104) %.
With `C[C@@H]1CCO[C@H]2Cn3cc(C(=O)NCc4ccc(F)cc4F)c(=O)c(O)c3C(=O)N12` [Dolutegravir, (4R,12aS)-N-[(2,4-difluorophenyl)methyl]-7-hydroxy-4-methyl-6,8-dioxo-3,4,12,12a-tetrahydro-2H-pyrido[5,6]pyrazino[2,6-b][1,3]oxazine-9-carboxamide] the “Estimate of DTG solubility” value ([1]; Treatment B: Bi-layer tablet, Contrex water (Ca++) plus flavour and sweetener, dispersion time immediate) was “Approx. 45% DTG”, the “Estimate of DTG solubility” value ([1]; Treatment C: Bi-layer tablet, Contrex water (Ca++) plus flavour and sweetener, dispersion time 30 mins) was “Approx. 45% DTG” and the “Estimate of DTG solubility” value ([1]; Treatment D: Bi-layer tablet, purified water plus flavour and sweetener, dispersion time immediate) was “Approx. 70% DTG”. The “Estimate of DTG solubility” value ([1]; Treatment E: Bi-layer tablet, purified water plus flavour and sweetener, dispersion time 30 mins) was “Approx. 16% DTG”, the “AUC0-inf (h*ug/mL) Ratio” value [2, 5] was 1.56 and the “Cmax (ug/mL) Ratio” value [2, 5] was 1.59. For the same molecule, the “AUC0-inf (h*ug/mL) Ratio” value [2, 6] was 1.53, the “Cmax (ug/mL) Ratio” value [2, 6] was 1.56 and the “AUC0-inf (h*ug/mL) Ratio” value [2, 7] was 1.58. The “Cmax (ug/mL) Ratio” value [2, 7] was 1.56, the “AUC0-inf (h*ug/mL) Ratio” value [2, 8] was 1.54 and the “Cmax (ug/mL) Ratio” value [2, 8] was 1.58. The “exposure compared to the reference, fold” value ([2]; bilayer tablets dispersed (B-E) vs reference 4×10 mg DTG tablet + Kivexa) was about 1.6 ×, the “impact of DTG solubility on DTG levels in plasma / PK” value [2] was “no impact on PK” and the “impact of DTG solubility on DTG levels in plasma / PK” value ([2]; listed as DTG) was “does not impact”. For the same molecule, the “exposure, fold” value ([3]; dosed as dispersion vs adult immediate release tablet) was about 1.6 ×, the “exposure, fold” value ([3]; dosed direct to mouth vs adult immediate release tablet) was about 1.25 × and the “Dissolution (% released)” value [4] was 91 (87-95) %.
For `Nc1ccn([C@@H]2CS[C@H](CO)O2)c(=O)n1` [Lamivudine, 2′,3′-dideoxy-3′-thiacytidine], the solubility when dispersed [1] was “fully soluble”, the “differences in exposure across all 5 arms” value [2] was “no differences in exposure” and the differences in exposure [3] was “No differences in exposure”. For the same molecule, the “Dissolution (% released)” value [4] was 99 (92-106) %.
